Results taken from patent US20080249033A1, “Carbamate Linked Macrolides Useful For The Treatment Of Microbial Infections” (priority 2004, published 2008).

Columns and labels:
Format in all cases: cell-based
H. influenzae ATCC 0529 = assay: MIC, microtiter broth serial dilution test; settings: Haemophilus influenzae, ATCC0529
S. pyogenes 0542 = assay: MIC, microtiter broth serial dilution test; settings: Streptococcus pyogenes
M. catarrhalis ATCC 0324 = assay: MIC, microtiter broth serial dilution test; settings: Moraxella catarrhalis, ATCC0324
[1] = system: S. aureus Smith ATCC 0329; assay: MIC, microtiter broth serial dilution test; settings: Staphylococcus aureus, ATCC0329
S. pneumoniae 0541 = assay: MIC, microtiter broth serial dilution test; settings: Streptococcus pneumoniae
E. faecalis ATCC 0004 = assay: MIC, microtiter broth serial dilution test; settings: Enterococcus faecalis, ATCC0004
[2] = system: erythromycin resistant strains of Streptococcus pneumoniae; assay: MIC, erythromycin resistant strains
[3] = system: erythromycin resistant strains of Streptococcus pyogenes; assay: MIC, erythromycin resistant strains

| MIC (H. influenzae ATCC 0529) [µg/mL] | MIC (S. pyogenes 0542) [µg/mL] | MIC (M. catarrhalis ATCC 0324) [µg/mL] | MIC [1] [µg/mL] | MIC (S. pneumoniae 0541) [µg/mL] | MIC (E. faecalis ATCC 0004) [µg/mL] | MIC [2] [µg/mL] | MIC [3] [µg/mL] | SMILES |
| --- | --- | --- | --- | --- | --- | --- | --- | --- |
| ≤ 0.125 | ≤ 0.125 | ≤ 0.5 | ≤ 0.125 | ≤ 0.125 | ≤ 0.125 |  |  | CC[C@H]1OC(=O)[C@H](C)[C@@H](O[C@H]2C[C@@](C)(OC)[C@@H](OC(=O)NCCOCCOCC#Cc3ccc4c(c3)c(=O)c(C(=O)O)cn4CC)[C@H](C)O2)[C@H](C)[C@@H](O[C@@H]2O[C@H](C)CC(N(C)C)[C@H]2O)[C@](C)(O)C[C@@H](C)CN(C)[C@H](C)[C@@H](O)[C@]1(C)O (some centres unmarked) [Example 3, 4″-(2-{2-[3-(3-Carboxy-1-ethyl-4-oxo-1,4-dihydro-quinolin-6-yl)-prop-2-ynyloxy]-ethoxy}-ethylcarbamoyl)-azithromycin] |
| ≤ 0.125 | ≤ 0.125 | ≤ 0.5 | ≤ 0.125 | ≤ 0.125 | ≤ 0.125 |  |  | CC[C@H]1OC(=O)[C@H](C)[C@@H](O[C@H]2C[C@@](C)(OC)[C@@H](OC(=O)NCCOCCOCCCc3ccc4c(c3)c(=O)c(C(=O)O)cn4CC)[C@H](C)O2)[C@H](C)[C@@H](O[C@@H]2O[C@H](C)CC(N(C)C)[C@H]2O)[C@](C)(O)C[C@@H](C)CN(C)[C@H](C)[C@@H](O)[C@]1(C)O (some centres unmarked) [Example 4, 4,1-(2-{2-[3-(3-Carboxy-1-ethyl-4-oxo-1,4-dihydro-quinolin-6-yl)-propoxy]-ethoxy}-ethylcarbamoyl)-azithromycin] |
| ≤ 2 | ≤ 0.125 |  | ≤ 0.125 | ≤ 0.125 | ≤ 0.125 | ≤ 0.125 | ≤ 0.125 | CC[C@H]1OC(=O)[C@H](C)[C@@H](OC2C[C@@](C)(OC)[C@@H](OC(=O)NCCOCCOCCNc3cc4c(=O)c(C(=O)O)cn(C5CC5)c4cc3Cl)[C@H](C)O2)[C@H](C)[C@@H](OC2O[C@H](C)C[C@H](N(C)C)[C@H]2O)[C@](C)(OC)C[C@@H](C)C(=O)[C@H](C)[C@@H](O)[C@]1(C)O (some centres unmarked) [Example 1, 4″-O-2-{2-[2-(3-Carboxy-7-chloro-1-cyclopropyl-4-oxo-1,4-dihydro-quinolin-6-ylamino)-ethoxy]-ethoxy}-ethylcarbamoyl-6-O-methyl erythromycin A] |
| ≤ 2 | ≤ 0.125 |  | ≤ 0.125 | ≤ 0.125 | ≤ 0.125 | ≤ 0.125 | ≤ 0.125 | CC[C@H]1OC(=O)[C@H](C)[C@@H](OC2C[C@@](C)(OC)[C@H](OC(=O)NCCOCCOCCNc3cc4c(=O)c(C(=O)O)cn(C5CC5)c4cc3Cl)[C@@H](C)O2)[C@H](C)[C@@H](O[C@@H]2O[C@H](C)CC(N(C)C)[C@H]2O)[C@](C)(O)C[C@@H](C)CN(C)[C@H](C)[C@@H](O)[C@]1(C)O (some centres unmarked) [Example 2, 4″-O-2-{2-[2-(3-Carboxy-7-chloro-1-cyclopropyl-4-oxo-1,4-dihydro-quinolin-6-ylamino)-ethoxy]-ethoxy}-ethylcarbamoyl-azithromycin] |
